Values of other authors, collected in publication PMC3563429 (Journal of the American Chemical Society, 2013).
pIC50: −log10 of the molar value.

Tested on: human calpain protease 1
Details: for inhibitory action against the cysteine protease calpain 1: described in the patent literature; for pIC50: read-out: IC50 against human calpain protease 1, previously reported

For `CCCCCC/C=C\CC(=O)N[C@@H](Cc1ccc(O)cc1)[C@@H](O)CC(=O)N[C@H](C(=O)N[C@@H](CO)[C@@H](O)CC(=O)N[C@H](C(=O)N[C@@H]1C=CC(=O)N[C@@H](C(C)C)C(=O)N(C)[C@@H](Cc2ccc(O)cc2)C(=O)OC1)C(C)C)C(C)C` [Compound 12, thalassospiramide B1], the “inhibitory action against the cysteine protease calpain 1” value is listed as “nanomolar inhibitory action” and the pIC50 is listed as 7.10.
For “Thalassospiramide D1 [Thalassospiramide D1 (15)]”, the “inhibitory action against the cysteine protease calpain 1” value is listed as “nanomolar inhibitory action” and the pIC50 is listed as 7.41.
